Patent US20230398130A1, “METHODS AND COMPOSITIONS FOR DIFFERENTIATING STEM CELLS” (Massachusetts Institute of Technology, priority 2020, published 2023)

Key:
[1] = system: ISC-enriched organoids; assay: Primary screen, 384-well 2.5-D organoid differentiation (ENR+CD, 6 days): carbachol-induced lysozyme secretion (LYZ.S); assay type: cell-based, murine; conditions: primary screen, FC vs plate median
Description: (§1) High-throughput screening.

[2] = system: ISC-enriched organoids; assay: Primary screen, 384-well 2.5-D organoid differentiation (ENR+CD, 6 days): basal lysozyme secretion (LYZ.NS); assay type: cell-based, murine; conditions: for Dose.FC.LYZ.NS: primary screen, FC vs plate median; for Z.LYZ.NS: standard z score of FC
Description: as §1

[3] = system: ISC-enriched organoids; assay: Primary screen, 384-well 2.5-D organoid differentiation (ENR+CD, 6 days, Target Selective Inhibitor Library, vs whole-plate median): ATP (CellTiter-Glo 3D, CTG); conditions: for Dose.FC.CTG: primary screen, FC vs plate median; for Z.CTG: standard z score of FC

Row | SMILES | Dose.FC.LYZ.S ([1]; Dose 0.08 uM) [log 2 fold change] | Dose.FC.LYZ.S ([1]; Dose 0.40 uM) [log 2 fold change] | Dose.FC.LYZ.S ([1]; Dose 2.00 uM) [log 2 fold change] | Dose.FC.LYZ.S ([1]; Dose 10.00 uM) [log 2 fold change] | Dose.FC.LYZ.NS ([2]; Dose 0.08 uM) [log 2 fold change] | Z.LYZ.NS ([2]; Dose 0.08 uM) | Dose.FC.LYZ.NS ([2]; Dose 0.40 uM) [log 2 fold change] | Z.LYZ.NS ([2]; Dose 0.40 uM) | Dose.FC.LYZ.NS ([2]; Dose 2.00 uM) [log 2 fold change] | Z.LYZ.NS ([2]; Dose 2.00 uM) | Dose.FC.LYZ.NS ([2]; Dose 10.00 uM) [log 2 fold change] | Z.LYZ.NS ([2]; Dose 10.00 uM) | Dose.FC.CTG ([3]; Dose 0.08 uM) [log 2 fold change] | Z.CTG ([3]; Dose 0.08 uM) | Dose.FC.CTG ([3]; Dose 0.40 uM) [log 2 fold change] | Z.CTG ([3]; Dose 0.40 uM) | Dose.FC.CTG ([3]; Dose 2.00 uM) [log 2 fold change] | Z.CTG ([3]; Dose 2.00 uM) | Dose.FC.CTG ([3]; Dose 10.00 uM) [log 2 fold change] | Z.CTG ([3]; Dose 10.00 uM)
1 | CC(C)(Cc1ccc2ccccc2c1)NC[C@@H](O)COc1cccc(Cl)c1C#N [NPS-2143] | 0.147 | −0.062 | −0.161 | −0.116 | 0.162 | 1.413 | −0.048 | −0.416 | −0.077 | −0.674 | −0.069 | −0.597 | 0.149 | 0.356 | −0.195 | −0.466 | −0.246 | −0.587 | −0.118 | −0.282
2 | Cc1ccc(S(=O)(=O)c2ccc([N+](=O)[O-])o2)cc1 [NSC697923] | 0.036 | 0.108 | −0.154 | −0.270 | 0.091 | 0.789 | 0.051 | 0.441 | −0.104 | −0.906 | −0.154 | −1.338 | −0.052 | −0.123 | −0.014 | −0.033 | −0.101 | −0.241 | −0.782 | −1.867
3 | CCN(CC)CCCC(C)Nc1nc(C)cc(Nc2ccc3nc(C)cc(N)c3c2)n1 (stereo not shown) [NSC 23766] | 0.080 | 0.090 | 0.031 | 0.030 | 0.081 | 0.701 | 0.044 | 0.380 | 0.058 | 0.506 | 0.009 | 0.080 | 0.043 | 0.103 | 0.170 | 0.406 | 0.117 | 0.279 | 0.324 | 0.774
4 | C/C(=N\NC(=S)N1CCC1)c1ccccn1 [NSC 319726] | 0.060 | −0.035 | −0.248 | −0.327 | 0.113 | 0.982 | −0.090 | −0.780 | −0.152 | −1.323 | −0.229 | −1.992 | 0.132 | 0.316 | −0.185 | −0.441 | −0.447 | −1.068 | −1.907 | −4.555
5 | CCCC(C)NC(=O)c1ccc(Cl)c(Cl)c1 (stereo not shown) [NSC 405020] | 0.014 | 0.093 | 0.002 | −0.061 | 0.008 | 0.071 | −0.028 | −0.246 | 0.018 | 0.160 | −0.065 | −0.570 | −0.059 | −0.140 | −0.071 | −0.170 | −0.059 | −0.141 | −0.058 | −0.138
